We go through seven molecules from ChEMBL document CHEMBL4819051, “Synthesis and antifungal activity of new hybrids thiazolo[4,5-d]pyrimidines with (1H-1,2,4)triazole” (Bioorg Med Chem Lett, 2021).

Series [1] can be described thus: 1-octanol/aqueous buffer distribution coefficient, logP of the compound at pH 7.4. It counts as physicochemical.
Series [2] has as its system Candida albicans. The experiment in a line: Antifungal activity against Candida albicans ATCC 24433 assessed as reduction in fungal growth incubated for 24 hrs by CLSI based serial microbroth dilution method. The series is classed as functional.
In series [3] the test system is Cryptococcus neoformans. The experiment in a line: Antifungal activity against Cryptococcus neoformans assessed as reduction in fungal growth incubated for 48 hrs by CLSI based serial microbroth dilution method. It counts as functional. On the technique in general: Dilution methods test growth across graded concentrations, often in twofold steps.
The subject of series [4] is Candida albicans. The experiment in a line: Antifungal activity against Candida albicans 8R assessed as reduction in fungal growth incubated for 48 hrs by CLSI based serial microbroth dilution method. The series is classed as functional.
The subject of series [5] is Candida albicans. The series is described as follows: Antifungal activity against Candida albicans 604M assessed as reduction in fungal growth incubated for 24 hrs by CLSI based serial microbroth dilution method. It counts as functional.
In series [6] the test system is Pichia kudriavzevii. The experiment in a line: Antifungal activity against Candida krusei 432M assessed as reduction in fungal growth incubated for 24 hrs by CLSI based serial microbroth dilution method. The series is classed as functional.
The subject of series [7] is Aspergillus niger. The series is described as follows: Antifungal activity against Aspergillus niger 37a assessed as reduction in fungal growth incubated for 24 hrs by CLSI based serial microbroth dilution method. It counts as functional.
In series [8] the test system is Nakaseomyces glabratus. The series is described as follows: Antifungal activity against Candida glabrata 61L assessed as reduction in fungal growth incubated for 24 hrs by CLSI based serial microbroth dilution method. The series is classed as functional.
Series [9] deals with Candida albicans. The series is described as follows: Antifungal activity against Candida albicans 604M assessed as reduction in fungal growth incubated for 48 hrs by CLSI based serial microbroth dilution method. The series is classed as functional.
The test system of series [10] is Candida parapsilosis. The series is described as follows: Antifungal activity against Candida parapsilosis ATCC 22019 assessed as reduction in fungal growth incubated for 48 hrs by CLSI based serial microbroth dilution method. As to conditions: Lodderomyces parapsilosis. The series is classed as functional.
Series [11] concerns Candida tropicalis. The series is described as follows: Antifungal activity against Candida tropicalis 3019 assessed as reduction in fungal growth incubated for 24 hrs by CLSI based serial microbroth dilution method. The series is classed as functional.
For series [12], the system named is Candida albicans. The experiment in a line: Antifungal activity against Candida albicans CBS 8837 assessed as reduction in fungal growth incubated for 48 hrs by CLSI based serial microbroth dilution method. The series is classed as functional.
For series [13], the system named is Candida albicans. The experiment in a line: Antifungal activity against Candida albicans ATCC 24433 assessed as reduction in fungal growth incubated for 48 hrs by CLSI based serial microbroth dilution method. The series is classed as functional.
Series [14] concerns Candida albicans. The series is described as follows: Antifungal activity against Candida albicans 8R assessed as reduction in fungal growth incubated for 24 hrs by CLSI based serial microbroth dilution method. The series is classed as functional.
For series [15], the system named is Candida albicans. The series is described as follows: Antifungal activity against Candida albicans CBS 8837 assessed as reduction in fungal growth incubated for 24 hrs by CLSI based serial microbroth dilution method. The series is classed as functional.
Series [16] deals with Cyberlindnera jadinii. The series is described as follows: Antifungal activity against Candida utilis 84 assessed as reduction in fungal growth incubated for 24 hrs by CLSI based serial microbroth dilution method. It counts as functional. As to conditions: Williopsis jadinii.
The subject of series [17] is Aspergillus niger. The series is described as follows: Antifungal activity against Aspergillus niger 37a assessed as reduction in fungal growth incubated for 48 hrs by CLSI based serial microbroth dilution method. It counts as functional.
Series [18] has as its system Nakaseomyces glabratus. The series is described as follows: Antifungal activity against Candida glabrata 61L assessed as reduction in fungal growth incubated for 48 hrs by CLSI based serial microbroth dilution method. The series is classed as functional.
Series [19] relates to Trichophyton rubrum. The experiment in a line: Antifungal activity against Trichophyton rubrum 2002 assessed as reduction in fungal growth incubated for 48 hrs by CLSI based serial microbroth dilution method. The series is classed as functional.
Series [20] concerns Cyberlindnera jadinii. The series is described as follows: Antifungal activity against Candida utilis 84 assessed as reduction in fungal growth incubated for 48 hrs by CLSI based serial microbroth dilution method. As to conditions: Williopsis jadinii. It counts as functional.
Series [21] deals with Cryptococcus neoformans. The experiment in a line: Antifungal activity against Cryptococcus neoformans assessed as reduction in fungal growth incubated for 24 hrs by CLSI based serial microbroth dilution method. The series is classed as functional.
Series [22] concerns Trichophyton rubrum. The series is described as follows: Antifungal activity against Trichophyton rubrum 2002 assessed as reduction in fungal growth incubated for 24 hrs by CLSI based serial microbroth dilution method. The series is classed as functional.
Series [23] concerns Pichia kudriavzevii. The series is described as follows: Antifungal activity against Candida krusei 432M assessed as reduction in fungal growth incubated for 48 hrs by CLSI based serial microbroth dilution method. The series is classed as functional.
The subject of series [24] is Microsporum canis. The experiment in a line: Antifungal activity against Microsporum canis B-200 assessed as reduction in fungal growth incubated for 48 hrs by CLSI based serial microbroth dilution method. It counts as functional.
For series [25], the system named is Microsporum canis. The experiment in a line: Antifungal activity against Microsporum canis B-200 assessed as reduction in fungal growth incubated for 24 hrs by CLSI based serial microbroth dilution method. It counts as functional.
Series [26] concerns Candida parapsilosis. The series is described as follows: Antifungal activity against Candida parapsilosis ATCC 22019 assessed as reduction in fungal growth incubated for 24 hrs by CLSI based serial microbroth dilution method. The series is classed as functional. The note with it: Lodderomyces parapsilosis.
Series [27] relates to Candida tropicalis. The experiment in a line: Antifungal activity against Candida tropicalis 3019 assessed as reduction in fungal growth incubated for 48 hrs by CLSI based serial microbroth dilution method. The series is classed as functional.

Values after ≈ are worked out from the molar mass of the structure shown.

Broadly, the logD is the decadic logarithm of the distribution of all forms, ionised or not, between an organic phase and buffer at a given pH. In turn, `O=c1c2sc(=S)n(-c3ccc(F)cc3)c2ncn1CC(O)(Cn1cncn1)c1ccc(F)cc1F` (stereo not drawn) yielded a logD in [1] of 0.47.
Same read-out and setting: as for `Cc1ccc(-n2c(=S)sc3c(=O)n(CC(=O)NCC(O)(Cn4cncn4)c4ccc(F)cc4F)cnc32)cc1` (stereo not drawn), the figure is 1.27.
Same read-out and setting: to `Cc1ccc(-n2c(=S)sc3c(=O)n(CC(O)(Cn4cncn4)c4ccc(F)cc4F)cnc32)cc1` (stereo not drawn) belongs 0.79.
As usually defined, the MIC is the smallest concentration in the dilution series that meets the test's criterion for growth inhibition. Regarding `O=c1c2sc(=S)n(-c3ccc(Cl)cc3)c2ncn1CCCN1CCN(CC(O)(Cn2cncn2)c2ccc(F)cc2F)CC1` (stereo not drawn), the MIC in the series on Candida albicans [2] came out at 16 µg/mL (≈ 24.3 µM); in the series on Cryptococcus neoformans [3] it was 32 µg/mL (≈ 48.5 µM); in the series with Candida albicans [4] it was 32 µg/mL (≈ 48.5 µM); in the series with Candida albicans [5] it was 32 µg/mL (≈ 48.5 µM); in the series with Pichia kudriavzevii [6], 16 µg/mL (≈ 24.3 µM); with Aspergillus niger [7] it was 32 µg/mL (≈ 48.5 µM). Moreover, the MIC turned out to be 2 µg/mL (≈ 3.03 µM) with Nakaseomyces glabratus [8]; 32 µg/mL (≈ 48.5 µM) with Candida albicans [9]; 0.25 µg/mL (≈ 0.379 µM) in the series with Candida parapsilosis [10]; 8 µg/mL (≈ 12.1 µM) in the series on Candida tropicalis [11]; 32 µg/mL (≈ 48.5 µM) in the series with Candida albicans [12]; 32 µg/mL (≈ 48.5 µM) in the series with Candida albicans [13]. Besides, the MIC with Candida albicans [14] stood at 32 µg/mL (≈ 48.5 µM); in the series on Candida albicans [15], 16 µg/mL (≈ 24.3 µM); in the series on Cyberlindnera jadinii [16] it was 2 µg/mL (≈ 3.03 µM); in the series on Aspergillus niger [17], 32 µg/mL (≈ 48.5 µM); in the series with Nakaseomyces glabratus [18], 32 µg/mL (≈ 48.5 µM); in the series with Trichophyton rubrum [19] it was 16 µg/mL (≈ 24.3 µM). Further, the MIC in the series on Cyberlindnera jadinii [20] was determined as 2 µg/mL (≈ 3.03 µM); in the series with Cryptococcus neoformans [21], 32 µg/mL (≈ 48.5 µM); in the series on Trichophyton rubrum [22], 16 µg/mL (≈ 24.3 µM); with Pichia kudriavzevii [23] it was 32 µg/mL (≈ 48.5 µM); in the series with Microsporum canis [24] it was 32 µg/mL (≈ 48.5 µM); with Microsporum canis [25], 32 µg/mL (≈ 48.5 µM). Moreover, the MIC is 0.25 µg/mL (≈ 0.379 µM) in the series with Candida parapsilosis [26] and 8 µg/mL (≈ 12.1 µM) with Candida tropicalis [27].
The molecule `O=C(Cn1cnc2c(sc(=S)n2-c2ccc(Cl)cc2)c1=O)NCC(O)(Cn1cncn1)c1ccc(F)cc1F` (stereo not drawn) had a logD in [1] of 1.16.
Consider `Cc1ccc(-n2c(=S)sc3c(=O)n(CCCN4CCN(CC(O)(Cn5cncn5)c5ccc(F)cc5F)CC4)cnc32)cc1` (stereo not drawn), for which the MIC with Candida albicans [2] came to 16 µg/mL (≈ 25 µM); in the series on Cryptococcus neoformans [3], 64 µg/mL (≈ 100 µM); with Candida albicans [4], 32 µg/mL (≈ 50.1 µM); in the series on Candida albicans [5], 32 µg/mL (≈ 50.1 µM); with Pichia kudriavzevii [6], 16 µg/mL (≈ 25 µM); with Aspergillus niger [7], 32 µg/mL (≈ 50.1 µM). Moreover, the MIC in the series on Nakaseomyces glabratus [8] was determined as 2 µg/mL (≈ 3.13 µM); in the series on Candida albicans [9], 32 µg/mL (≈ 50.1 µM); with Candida parapsilosis [10], 0.5 µg/mL (≈ 0.783 µM); in the series on Candida tropicalis [11], 8 µg/mL (≈ 12.5 µM); with Candida albicans [12] it was 32 µg/mL (≈ 50.1 µM); with Candida albicans [13], 32 µg/mL (≈ 50.1 µM). The MIC in the series with Candida albicans [14] amounted to 16 µg/mL (≈ 25 µM); in the series on Candida albicans [15], 16 µg/mL (≈ 25 µM); in the series on Cyberlindnera jadinii [16], 4 µg/mL (≈ 6.26 µM); in the series with Aspergillus niger [17] it was 32 µg/mL (≈ 50.1 µM); with Nakaseomyces glabratus [18] it was 32 µg/mL (≈ 50.1 µM); in the series on Trichophyton rubrum [19], 32 µg/mL (≈ 50.1 µM). For the same molecule, the MIC in the series with Cyberlindnera jadinii [20] was 4 µg/mL (≈ 6.26 µM); in the series on Cryptococcus neoformans [21], 64 µg/mL (≈ 100 µM); in the series on Trichophyton rubrum [22], 32 µg/mL (≈ 50.1 µM); in the series on Pichia kudriavzevii [23], 32 µg/mL (≈ 50.1 µM); in the series with Microsporum canis [24], 32 µg/mL (≈ 50.1 µM); in the series with Microsporum canis [25], 32 µg/mL (≈ 50.1 µM). The MIC amounted to 0.5 µg/mL (≈ 0.783 µM) in the series on Candida parapsilosis [26] and 16 µg/mL (≈ 25 µM) with Candida tropicalis [27]. In addition, the logD in series [1] was determined as 4.1.
Molecule `O=C(Cn1cnc2c(sc(=S)n2-c2ccc(F)cc2)c1=O)NCC(O)(Cn1cncn1)c1ccc(F)cc1F` (stereo not drawn) yielded a logD in series [1] of 0.79.
